Values of other authors in patent publication US20230405125A1, “TREATMENT OF RECURRENT GIOBLASTOMA WITH PERILLYL ALCOHOL” (NeOnc Technologies, Inc., priority 2020, published 2023).
“Also recorded” adds a separate entry of the source. Where two headings read alike, the source gives them in different places.

What was measured:
[1] = system: patients with different solid tumors; details: oral POH
[2] = target: farnesyl-protein transferase (FPT) (Homo sapiens, UniProt P49354+P49356)
[3] = system: patients with recurrent malignant gliomas
[4] = Reardon et al. (CheckMate 143) 2020

## CCOP(=O)(OCC)C(C)NC(=O)N(CCCl)N=O (stereo not drawn) [Fotemustine]
Recurrent GBM patients; human, in vivo
  OS-6: 73%
  OS-9: 47%
  OS-12: 40%
  median OS: 8.7 months

## C=C(C)[C@@H]1CC=C(CO)CC1 [POH]
[1]
  anti-cancer efficacy: limited
  tolerability: Gastrointestinal toxicity proved dose-limiting
[1]; listed as perillyl alcohol
  tolerability: poorly tolerated
[2]
  effect on FPT enzymatic activity: inhibit
[3]; intranasal commercial grade POH with solvent cocktail, 150 patients
  six month progression free survival rate: 50%
[3]; intranasal commercial-grade POH
  radiographic response: Radiographic regression
[3]; intranasal commercial-grade POH, four times daily
  tolerability / adverse effects: minimal side effect; also recorded: good tolerance; also recorded: no severe adverse effects

## O=NN(CCCl)C(=O)NC1CCCCC1 [Lomustine]
Recurrent GBM patients; Batchelor et al. 2013
  OS-6: 70%
  OS-9: 52%
  OS-12: 41%
  median OS: 9.8 months

## Bevacizumab: humanized monoclonal antibody against VEGF (vascular endothelial growth factor)
Recurrent GBM patients; Field et al. (CABARET) 2015
  OS-6: 61%
  OS-9: 39%
  OS-12: 24%
  median OS: 7.5 months
Recurrent GBM patients; Heiland et al. 2016
  OS-6: 18%
  OS-12: 10%
  median OS: 4.1 months
Recurrent GBM patients; Taal et al. (BELOB) 2014
  OS-6: 64%
  OS-9: 38%
  OS-12: 26%
  median OS: 8.0 months

## Nivolumab: fully human monoclonal antibody targeting the programmed death-1 (PD-1) immune checkpoint receptor
Recurrent GBM patients; [4]
  OS-6: 72%
  OS-9: 52%
  OS-12: 42%
  median OS: 9.8 months
